Test results published in US20110112308A1 (NOVARTIS AG, priority 2006, published 2011).

How the values were obtained:
[1] = pH of saturated solution or 1% suspension in water; type: physicochemical; conditions: In pH = 6.8 buffer
[2] = Intrinsic dissolution rate, rotation disk method; type: physicochemical; conditions: for Intrinsic Dissolution Rate: 37° C., 200 r.p.m.
In short: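 Pellets of drug substance dissolved by rotating disk at 200 r.p.m. into a 500 mL vessel at 37 °C. Dissolved drug monitored continuously by recirculating the medium through a UV cell.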

[3] = Solubility, 24-hour equilibration at room temperature; type: physicochemical; conditions: for Solubility: approx. at 25° C.
In short: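 20-50 mg sample in 1 ml solvent, equilibrated 24 h at room temperature. Dissolved amount measured gravimetrically or by UV-VIS, and pH of the clear solution recorded; salts may dissociate to free form, affecting solubility and pH.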

[4] = Equilibration in solvents and buffers: form conversion
Solid-state stability = type: physicochemical; conditions: for Bulk stability (XRPD): 1 week
Method: (§1) All samples were prepared/diluted to a concentration of 0.2 mg/mL in methanol prior to analysis by HPLC. A freshly prepared sample of each salt was used as the reference standard for external standard calibration analysis.

[5] = Stability of mixtures with excipients; type: physicochemical
Method: as §1

[6] = Solution stability (HPLC); type: physicochemical
Method: as §1

[7] = pH of saturated solution or 1% suspension in water; type: physicochemical; conditions: room temperature
Method: pH Value: The pH at room temperature of a saturated solution or 1% suspension of the drug substance in water was recorded.

[8] = Bulk stability, 2 weeks, 50° C.
[9] = Bulk stability, 2 weeks, 50° C./20% water
[10] = Bulk stability, 2 weeks, 50° C./75% r.h.
[11] = Light study, 1200 kLux (300-800 nm)
[12] = Mixture 1: 50% PVP + 50% Crospovidone, 50° C./75% r.h., 2 weeks
[13] = Mixture 2: 50% Starch 1500 + 5% MCC 102, 50° C./75% r.h., 2 weeks
[14] = Mixture 3: 5% PVP + 5% Crospovidone + 10% Starch 1500 + 80% MCC 102, 50° C./75% r.h., 2 weeks
[15] = Mixture 4: 99% Lactose + 1% BHT/BHA, 50° C./75% r.h., 2 weeks
[16] = Mixture 5: 99% Mannitol + 1% BHT/BHA, 50° C./75% r.h., 2 weeks
[17] = Mixture 6: 50% Mannitol + 47% HPCLH21 + 1% BHT/BHA + 2% Magnesium Stearate, 50° C./75% r.h., 2 weeks
[18] = Mixture 7: 50% Cetyl Alcohol + 49% HPCLH21 + 1% Magnesium Stearate, 50° C./75% r.h., 2 weeks
[19] = Mixture 8: 100% PEG 3350, 50° C./75% r.h., 2 weeks
[20] = 2 mg/mL in methanol, 1 week at 50° C.
[21] = 2 mg/mL in water, 1 week at 50° C.
[22] = 2 mg/mL, 100 mM lactate buffer pH 3.5, 1 week at 50° C.
[23] = 2% in 0.5% HPMC 4000, 1 day at RT
[24] = 2% in 0.5% Klucel HF, 1 day at RT
[25] = 2% in 0.8% Tween 80, 1 day at RT
[26] = 5% solution, 1 day at RT (diluted 1:100 in pH 6.8 buffer)

Cc1[nH]c2ccccc2c1CCNCc1ccc(/C=C/C(=O)NO)cc1.Cl [HCl, hydrochloride salt of N-hydroxy-3-[4-[[[2-(2-methyl-1H-indol-3-yl)ethyl]amino]methyl]phenyl]-2E-2-propenamide]
pH of saturated solution [1]: 5.67
intrinsic dissolution (rate), in words [2]: good
Intrinsic Dissolution Rate ([2]; HCl 0.1N): 0.13 mg min^−1 cm^−2
Intrinsic Dissolution Rate ([2]; Water, free base pellet disintegrated, not true intrinsic rate): 0.68 mg min^−1 cm^−2
aqueous solubility [3]: 2400 µg/mL
solubility in methanol, in words [3]: high
solubility in other common / remaining organic solvents, in words [3]: considerable
Solubility ([3]; 0.1N HCl): 200 µg/mL
Solubility ([3]; 2-Propanol): 800 µg/mL
Solubility ([3]; Acetone): 4500 µg/mL
Solubility ([3]; Ethanol): 2100 µg/mL
Solubility ([3]; Ethyl acetate): 6500 µg/mL
Solubility ([3]; Methanol): 16600 µg/mL
Solubility ([3]; Propylene glycol): 13200 µg/mL
Solubility ([3]; Water): 2400 µg/mL
approximate solubility in water as % ([3]; estimated from mg/mL assuming solution density 1 g/mL): approximately 0.3%
Solubility ([3]; pH = 6.8 buffer): 700 µg/mL
polymorphs upon equilibration ([4]; ambient temperature): No additional polymorphs are detected
conversion upon equilibration ([4]; phosphate buffer (pH=6.8)): converts to the free base
Bulk stability (XRPD) (Solid-state stability; 80° C.): no change
Bulk stability (XRPD) (Solid-state stability; 80° C./75% r.h.): no change
% DP (total degradation products) (Solid-state stability; [8]): 0.44 % area
assay (Solid-state stability; [8]): [99.38]
% DP (total degradation products) (Solid-state stability; [9]): 0.56 % area
assay (Solid-state stability; [9]): [100.6]
% DP (total degradation products) (Solid-state stability; [10]): 0.56 % area
assay (Solid-state stability; [10]): [99.04]
% DP (total degradation products) (Solid-state stability; [11]): 2.58 % area
CL (appearance) (Solid-state stability; [11]): C (C = medium discoloration)
assay (Solid-state stability; [11]): [98.15]
% DP (total degradation products) [5, 12]: 0.6 % area
% DS (drug substance) [5, 12]: 99.4 % area
% DP (total degradation products) [5, 13]: 0.5 % area
% DS (drug substance) [5, 13]: 99.5 % area
% DP (total degradation products) [5, 14]: 0.6 % area
% DS (drug substance) [5, 14]: 99.4 % area
% DP (total degradation products) [5, 15]: 0.5 % area
% DS (drug substance) [5, 15]: 99.5 % area
% DP (total degradation products) [5, 16]: 0.5 % area
% DS (drug substance) [5, 16]: 99.5 % area
% DP (total degradation products) [5, 17]: 0.5 % area
% DS (drug substance) [5, 17]: 99.5 % area
% DP (total degradation products) [5, 18]: 0.5 % area
% DS (drug substance) [5, 18]: 99.5 % area
% DP (total degradation products) [5, 19]: 0.5 % area
% DS (drug substance) [5, 19]: 99.5 % area
% DP (total degradation products) ([5]; Standard, freshly prepared): 0.3 % area
% DS (drug substance) ([5]; Standard, freshly prepared): 99.7 % area
stability with all excipient mixtures tested, in words ([5]; after 2 weeks at 50° C./75% r.h.): very good stability
pH of initial mixture ([6]; 2 mg/mL in 100 mM lactate buffer, pH 3.5): 3.52
% DP (total degradation products) [6, 20]: 0.38 % area
assay [6, 20]: [99.25]
pH of initial mixture ([6]; 2 mg/mL in water): 5.93
% DP (total degradation products) [6, 21]: 0.89 % area
CL (appearance) [6, 21]: A↓*
assay [6, 21]: [97.53]
% DP (total degradation products) [6, 22]: 1.30 % area
CL (appearance) [6, 22]: A↓*
assay ([6]; 2 mg/mL, 100 mM lactate buffer pH 3.5, 1 week at 50° C., external standard): [96.61]
% DP (total degradation products) ([6]; 2% in 0.5% CMC, 1 day at RT): 0.46 % area
CL (appearance) ([6]; 2% in 0.5% CMC, 1 day at RT): A↓↓
assay ([6]; 2% in 0.5% CMC, 1 day at RT): [85.28]
% DP (total degradation products) [6, 23]: 0.43 % area
assay [6, 23]: [100.0]
% DP (total degradation products) [6, 24]: 0.43 % area
assay [6, 24]: [100.6]
% DP (total degradation products) [6, 25]: 0.43 % area
assay [6, 25]: [97.83]
% DP (total degradation products) [6, 26]: 1.40 % area
CL (appearance) [6, 26]: A↓
assay [6, 26]: [98.91
stability characteristics, in words ([6]; both in solution and in the solid state): very good stability
Unstressed (% Area) ([6]; unstressed baseline of the stability study): 99.63% Area
pH of saturated solution [7]: 5.65
